Data: US20110275635A1 (priority 2009, published 2011)
Converted amounts (≈) assume the structure as drawn. Structures can show the parent of a compound that is named as a salt. Where two headings read alike, the source gives them in different places.

Legend:
[1] = tested on: Bacillus anthracis Sterne; assay: microbe, parasite or virus in culture; assay type: cell-based; conditions: for MIC: Bacillus anthracis
[2] = target: B. anthracis NADs (Bacillus anthracis, UniProt Q81RP3); assay type: biochemical
B. anthracis NADs, sequence (Q81RP3 whole entry, looked up): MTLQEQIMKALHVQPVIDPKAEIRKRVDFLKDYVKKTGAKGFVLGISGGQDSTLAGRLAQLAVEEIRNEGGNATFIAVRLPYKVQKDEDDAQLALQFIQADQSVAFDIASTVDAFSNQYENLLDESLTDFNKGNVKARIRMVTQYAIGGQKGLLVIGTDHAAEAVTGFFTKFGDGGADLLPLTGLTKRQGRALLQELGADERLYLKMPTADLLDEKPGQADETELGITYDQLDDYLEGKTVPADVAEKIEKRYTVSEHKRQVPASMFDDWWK

Row | Structure (SMILES) | MIC ([1]; read-out: B.a. MIC (μM)) [µM] | IC50 ([2]; read-out: IC50) [µM] | IC50 ([2]; read-out: NADs IC50) [µM] | MIC ([1]; 5 h, read-out: MIC100 (μM)) [µM] | activity against B. anthracis (in words) [1]
1 | O=C(COC(=O)c1ccc(NC(=O)c2ccc([N+](=O)[O-])cc2)cc1)c1ccc(F)cc1 [Compound 5606] | > 237 | 141 | 176 ± 49 |  | 
2 | Cc1onc(-c2ccccc2)c1NC(=O)Nc1ccc(Oc2ncnc3cc(Cl)ccc23)nc1 [Compound 5763] | > 240 | 232 | 232 ± 55 |  | 
3 | Cc1c(NC(=O)c2ccc(N3CCCC3)c([N+](=O)[O-])c2)cccc1-c1nc2ccccc2[nH]1 [Compound 5830] | > 240 | 198 | 193 ± 8 |  | 
4 | COc1ccc(CCNC(=O)NCc2cccc(CNC(=O)NCCc3ccc(OC)cc3)c2)cc1 [Compound 5609] | > 204 | 70 | 70 |  | 
5 | O=[N+]([O-])c1ccc(-c2cnc(N/N=C/c3cccc([N+](=O)[O-])c3)nc2)cc1 [Compound 5591] | > 274 | 160 | 160 ± 57 |  | 
6 | Cc1ccc(C(=O)Nc2cccc(-c3nc4ccccc4[nH]3)c2)cc1 [Compound 5710] | > 240 | 128 | 189 ± 86 |  | 
7 | O=C(CCC(=O)Nc1ccc(Nc2ccccc2)cc1)Nc1ccc(Nc2ccccc2)cc1 [Compound 5604] | > 222 | 141 | 256 ± 210 |  | 
8 | Cc1cc(-c2nnc(CSc3nnc(NC(=O)c4ccc(F)c(Cl)c4)s3)o2)ccc1[N+](=O)[O-] [Compound 5731] | > 240 | 271 | 270 ± 3 |  | 
9 | CCc1ccc(S(=O)(=O)Nc2c([N+](=O)[O-])ccc3ccccc23)cc1 [Compound 5599] |  |  |  | 3.75 (≈ 1.34 µg/mL) | 
10 | O=C(Nc1ccc(Cc2ccc(NC(=O)c3ccc4c(c3)OCO4)cc2)cc1)c1ccc2c(c1)OCO2 [Compound 5818] |  | 65.7 | 65.7 | > 240 | 
11 | Cc1cc(C)c2oc(-c3cccc(NC(=O)/C=C/c4cccc([N+](=O)[O-])c4)c3)nc2c1 [Compound 5806] | > 240 | 67.8 | 68 ± 5 |  | 
12 | Nc1c(C(=O)c2ccc([N+](=O)[O-])cc2)sc(Nc2ccccc2)c1-c1nc2ccccc2[nH]1 [Compound 5768] | > 240 | 170 | 170 ± 48 |  | 
13 | N/C(=N\OC(=O)c1ccc(Cl)c(Cl)c1)c1cccc(CSc2ccccn2)c1 [Compound 5775] | > 240 | 290 | 290 |  | 
14 | NC(=O)c1ccc(NC(=O)c2ccc(Oc3ccc([N+](=O)[O-])cc3Cl)cc2)cc1 [Compound 5821] | > 240 | 104 | 130 ± 37 |  | 
15 | O=C(Nc1ccc2oc(-c3cc(Br)ccc3Cl)nc2c1)c1cccc([N+](=O)[O-])c1 [Compound 5798] |  | 61.8 | 61.8 | > 240 | 
16 | NC(=O)c1ccc(/N=C/c2cc([N+](=O)[O-])ccc2Cl)cc1 [Compound 5679] | > 329 | 262 | 262 ± 8 |  | 
17 | O=C(Nc1cccc(C(=O)Nc2cccc3ccccc23)c1)c1cccc([N+](=O)[O-])c1 [Compound 5802] | > 240 | 225 | 225 ± 36 |  | 
18 | O=C(Nc1ccc(S(=O)(=O)Nc2ncccn2)cc1)Nc1ccc(Cl)c(Cl)c1 [Compound 5617] | 15 (≈ 6.57 µg/mL) |  |  |  | good activities
19 | COc1ccc(Oc2ccc([N+](=O)[O-])cc2C(=O)Nc2ccc(S(N)(=O)=O)cc2)cc1 [Compound 5724] | > 240 | 291 | 291 ± 29 |  | 
20 | Cc1ccc(-c2nc3cc(Cl)ccc3o2)cc1CC(=O)c1cc([N+](=O)[O-])c(C)c([N+](=O)[O-])c1 [Compound 5588] | > 240 | 78.5 | 84 ± 35 | > 215 | 
21 | O=C(O)c1cn(C2CC2)c2cc(N3CCNCC3)c(F)cc2c1=O [Cipro, ciprofloxacin hydrochloride, reference compound] | 0.5 |  |  |  | 
22 | O=C(CSc1nc(Nc2ccccc2)nc(N2CCOCC2)n1)Nc1ccc([N+](=O)[O-])cc1O [Compound 5833] | 15 (≈ 7.25 µg/mL) |  |  |  | good activities
